Experiments:
[1] = test system: E. multilocularis metacestode vesicles; assay: Phosphoglucose isomerase (PGI) release assay (damage-marker release) on metacestode vesicles; type: cell-based, Echinococcus multilocularis; conditions: 10 μM; for PGI d5 (relative PGI release): 5 days; for PGI d12 (relative PGI release): 12 days
[2] = test system: E. multilocularis metacestode vesicles; assay: Metacestode vesicle viability assay (ATP, CellTiter-Glo); type: cell-based, Echinococcus multilocularis
Method: Viability was assessed after 12 days using the same metacestode vesicles as for the PGI release assay. Triton X-100 was added to each well to a final concentration of 0.1 %. Subsequently the metacestode vesicles were broken mechanically and 50 μL of the supernatant was mixed with 50 μL of CellTiter-Glo® buffer (Promega, Dübendorf, Switzerland). Measurements were performed on a HIDEX Sense microplate reader.

[3] = overview screen, singlets, relative to 0.1 % Triton X-100, DMSO subtracted
[4] = overview screen, 10 μM, singlets, 12 days, relative to DMSO control
[5] = confirmation screen, triplicates, mean
[6] = confirmation screen, 10 μM, triplicates, mean, 12 days

SMILES	PGI d5 (relative PGI release) [1, 3]	PGI d12 (relative PGI release) [1, 3]	Viability d12 (relative viability) [2, 4]	PGI d5 (relative PGI release) [1, 5]	PGI d12 (relative PGI release) [1, 5]	Viability d12 (relative viability) [2, 6]	Viability d12 (relative viability) ([2]; 10 µM)
Cc1cccc(CC(=O)N[C@H]2CCOC2=O)c1 [MMV1579782]	1.649%	1.447%	167.646%				
CCCCCCCCC(CP(=O)(O)C(C)N)C(=O)O (stereo not drawn) [MMV1582487]	-0.4977%	-10.5393%	34.1503%				
Cc1nc(-c2ccc(C3N(C)c4ccc(F)cc4C(=O)N3c3ccccc3)s2)cs1 (stereo not drawn) [MMV1582492]	-1.6173%	-12.6909%	101.198%				
CCC[C@@H]1C[C@@H](C(=O)N[C@@H]([C@H]2O[C@H](SC)[C@H](O)[C@@H](O)[C@H]2O)[C@H](C)Cl)N(C)C1.Cl [MMV000051]	15.4885%	58.7211%	23.7506%	0.38%	-0.19%	61.99%	
O=C(Nc1[nH]c(=O)ncc1F)c1ccccc1 [MMV1782225]	-0.8152%	-21.87%	224.691%				
Fc1ccc(-c2nc(-c3c[nH]c4ccc(Br)cc34)[nH]c2-c2ccc(F)cc2)cc1 [MMV1593537]	27.6196%	72.794%	8.099%	0.49%	-0.0663%	69.22%	
CCc1c(O)nc2ccc(F)cc2c1OCC1CCC1 [MMV1634395]	-0.4952%	-17.3568%	119.991%				
OCCC#Cc1nc(-c2ccc(F)cc2)c(-c2ccncc2)n1CCCc1ccccc1 [MMV1580797]	0.809%	-17.1938%	270.956%				
COc1c(NC(=O)[C@H]2CC[C@@H](COc3ccc([N+](=O)[O-])cc3)CC2)c(F)cc2c(=O)c(C(=O)O)cn(C3CC3)c12 [MMV1633965]	0.7075%	-11.0947%	49.6807%				
CCc1oc2ccccc2c1C(=O)c1ccc(O)cc1 [MMV1578558]	-2.405%	11.8922%	72.3877%				
NC(=S)N/N=C/c1ncccc1N [MMV1580496]	-0.2661%	1.095%	58.7881%				
O=C(/C(=C/c1ccc(Cl)cc1Cl)n1ccnc1)c1ccc(Cl)cc1 [MMV1634491]	24.947%	25.566%	14.6955%	0.16%	5.15%	83.69%	
CC(C)(C)c1ccc(OCCn2nc(C(=O)O)c3ccccc3c2=O)cc1 [MMV1634387]	-1.414%	-12.4336%	144.45%				
CC(=N)N1CC[C@H](SC2=C(C(=O)O)N3C(=O)[C@@H]([C@@H](C)O)[C@H]3C2)C1 [MMV1582382]	-2.073%	-11.6677%	19.8723%				
O=C(NCc1cccc2ccccc12)c1cccs1 [MMV1579845]	-2.677%	-26.5326%	53.7721%				
O=C(Nc1ccc(-c2ccccc2)cc1)C1=C(O)C(Cc2ccccc2)OC1=O (stereo not drawn) [MMV1593531]	4.793%	88.1717%	16.5533%	0.17%	1.55%	49.52%	
CN1c2ccc(Cl)cc2N(c2ccccc2)C(=O)c2cn(Cc3ccc(CN4CCOCC4)cc3)nc21 [MMV1782222]	-0.005582%	0.3517%	123.597%				

SMILES	PGI d5 (relative PGI release) [1, 3]	PGI d12 (relative PGI release) [1, 3]	Viability d12 (relative viability) [2, 4]	PGI d5 (relative PGI release) [1, 5]	PGI d12 (relative PGI release) [1, 5]	Viability d12 (relative viability) [2, 6]	Viability d12 (relative viability) ([2]; 10 µM)
Nc1nc2c(ncn2[C@@H]2O[C@H](CO)[C@@H](O)[C@H]2F)c(=O)[nH]1 [MMV1633677]	-0.3308%	49.9588%	216.057%				
CC(C)(C)NC(=O)[C@@H]1C[C@@H]2CCCC[C@@H]2CN1C[C@@H](O)[C@H](Cc1ccccc1)NC(=O)[C@H](CC(N)=O)NC(=O)c1ccc2ccccc2n1 [MMV637879]	-0.1506%	-17.9883%					108.384%
C=C(C)n1c(=O)n(Cc2ccccc2C)c2ccccc21 [MMV1579354]	29.5855%	93.1874%	10.0196%	-0.0635%	0.33%	130.19%	
CCC(C)n1ncn(-c2ccc(N3CCN(c4ccc(OCC5COC(Cn6cncn6)(c6ccc(Cl)cc6Cl)O5)cc4)CC3)cc2)c1=O (stereo not drawn) [MMV637528]	-2.417%	-24.1326%	37.4902%				
CC(C)c1cc2c(cc1S(=O)(=O)O)[C@@]1(C)CCC[C@@](C)(C(=O)O)[C@@H]1CC2 [MMV1633675]	-5.75%	-3.32%	100.907%				
COc1ccc(C(C)(C)C)cc1NC(=O)C(=O)c1ccc(OCCN2CCOCC2)c2ccccc12 [MMV1782209]	0.2921%	0.2691%	152.31%				
Cc1nc2ccc(Cl)cc2c(-c2ccccc2)c1CC(=O)O [MMV1580801]	6.482%	83.9153%	42.503%				
O=C(/C=C/n1cnc(-c2cc(C(F)(F)F)cc(C(F)(F)F)c2)n1)NNc1cnccn1 [MMV1593517]	1.037%	-18.0019%					95.9515%
c1ccc(Cn2c(-c3ccccn3)nc3ccccc32)cc1 [MMV1578886]	-1.473%	58.1597%	16.9499%	-0.18%	-0.24%	94.29%	
Cl.Cl.NCCCc1ccccc1C(=O)Nc1ncc([N+](=O)O)s1 [MMV1579786]	-0.3411%	-16.376%	116.729%				
FC(F)(F)c1cc(C(F)(F)F)c2ccc3nc(-c4nnco4)cn3c2n1 [MMV690555]	0.9496%	0.5886%	300.676%				
O=C1NC(=O)C(Br)=C1Br [MMV1578554]	3.162%	5.51%	135.147%				
Oc1ccc(NCc2ccccc2OCc2ccccc2)cc1 [MMV1580504]	-1.084%	-20.6703%	79.6345%				
CC(=O)O[C@H]1C[C@@]2(C)[C@@H](C[C@@H](O)[C@H]3[C@@]4(C)CC[C@@H](O)[C@@H](C)[C@@H]4CC[C@@]32C)/C1=C(\CCC=C(C)C)C(=O)O [MMV1578575]	2.315%	-12.4921%					144.199%
Cc1ccc(N2CCC(CCOc3ccc(S(C)(=O)=O)cc3)CC2)nn1 [MMV1634394]	0.369%	-19.1494%	249.705%				
CC[C@H](CO)NCCN[C@H](CC)CO [MMV687801]	-2.724%	9.893%	117.919%				

From paper PMC12410356 (International Journal for Parasitology: Drugs and Drug …, 2025)
